In patent US8338616B2, “Thiazoliums and their use for treating protein aging associated diseases” (Beijing Molecule Science And Technology Co., Ltd., priority 2008, dated 2012):

Key:
AGEs = settings: studies in rats, beagles (oral) and mice, CN200610002391.6; cited from earlier work
[1] = system: NaCl treated diabetic rats modeled with heart failure; experiment: Chronic heart failure, first batch, ultrasonic cardiogram evaluation; format: in vivo, rat; settings: 10th week of administration; valsartan 10 mg/kg, compound A 18 mg/kg ig
Protocol: The pharmacodynamic evaluation was conducted by using a noninvasive ultrasonic cardiogram method.
Evaluation indexes: (1) morphology indexes: left ventricular posterior wall dimensions (LVPWd), left ventricular diastasis internal diameter (LVDd), end systolic diameter (LVDs); (2) functional indexes: ejection fraction (EF), shortening fraction (FS), ventricular early blood flow filling rate (E), atrial filling rate (A) and ratio of E/A; Doppler tissue image; at cardiac apical four chamber view, the valve ring of anterior mitral valve was used as sampling point, peak early diastolic velocity (Ea peak), peak late diastolic velocity (Aa peak), and Ea/Aa ratio reflected the systolic and diastolic motion of the whole left ventricle.
SPSS statistic software was used to analyze and treat data, and all data were expressed in mean±standard deviation (Mean±SD).

| SMILES | breaking effect on AGEs (AGEs) | LVDd and LVDs vs model [1] | PWd vs model [1] |
| --- | --- | --- | --- |
| Cc1csc[n+]1CC(=O)OCc1ccccc1.[Br-] [3-benzyloxycarbonylmethyl-4-methyl-thiazole-3-bromide] | excellent breaking effect on AGEs |  |  |
| CCCCC(=O)N(Cc1ccc(-c2ccccc2-c2nnn[nH]2)cc1)[C@H](C(=O)O)C(C)C [valsartan, reference compound] |  | slight decrease | slight increase |
